Here are results for 1 compound from article PMC9481151, “Discovery of new symmetrical and asymmetrical nitrile-containing 1,4-dihydropyridine derivatives as dual kinases and P-glycoprotein inhibitors: synthesis, in vitro assays, and in silico studies” (Journal of Enzyme Inhibition and Medicinal Chemistry, 2022).

SMILES strings stand for the structures.

Assay [1] deals with HCT-116/ADR cells. The assay is described as follows: cells. The note with it: Homo sapiens, HCT-116, read-out: Cytotoxicity IC50, HCT-116/ADR.
In assay [2] the test system is drug-resistant HCT-116/ADR cells. In words: Potentiation of DOX cytotoxicity (reversal DOX effect, P-gp modulation). It is filed as cell-based, human. The note with it: IC50 (DOX) without modulator / IC50 (DOX) with modulator.
Assay [3] has as its system HCT-116 cells. In words: In vitro cytotoxicity. As to conditions: Homo sapiens, HCT-116, read-out: Cytotoxicity IC50, HCT-116.

As to `COc1cccc2c1C(=O)c1c(O)c3c(c(O)c1C2=O)C[C@@](O)(C(=O)CO)C[C@@H]3O[C@H]1C[C@H](N)[C@H](O)[C@H](C)O1` [DOX, Doxorubicin, reference compound], the IC50 in assay [1] came to 16.91 ± 0.14 µM; in assay [3] it was 1.15 ± 0.43 µM. Besides, the “RF (reversal fold activity)” value in assay [2] turned out to be 1.
